Data reported in US20130101972A1, “METHODS FOR REDUCING RISK” (SANOFI, priority 2009, published 2013).

Legend:
Type in all cases: in vivo, human
[1] = system: patients with severe heart failure; assay: ANDROMEDA study, placebo-controlled, in patients with left ventricular dysfunction hospitalized with symptomatic HF; settings: versus placebo, patients with severe heart failure requiring recent hospitalization or referral
Method: The present invention relates to the following identified and potential risk of dronedarone: mortality in patients with severe heart failure (HF) during treatment. The study referred to as ANDROMEDA was conducted in 627 patients with left ventricular dysfunction, hospitalized with symptomatic HF, requiring treatment with a diuretic, who have had within the last month at least 1 episode of dyspnea or fatigue at rest, or on slight exertion. […] The study was stopped prematurely due to an observed imbalance of deaths in the dronedarone group [n=25 versus 12 (placebo), p=0.027]. The main reason for death was worsening heart failure. Clinical judgment of the physician should guide the management plan of each patient based on individual benefit/risk assessment.

patients with AF/AFL = assay: Pooled safety analysis of 5 controlled AF/AFL clinical studies, dronedarone 400 mg BID versus placebo
Text: (§1) The safety of dronedarone has been evaluated in a clinical development program that included, as of 12 Mar. 2008, a total of 8276 treated patients/healthy subjects in 55 completed studies. Of these, 4794 patients/healthy subjects received dronedarone.
Patients with the claimed indication of AF/AFL were included in 5 controlled clinical studies representing 88% (6285 patients) of the exposed patient population (7109 patients). Other patient populations, representing 14% (1028 patients) of the exposed patient population, were included in 13 clinical studies in patients with other cardiac conditions and patients with renal and hepatic impairment.
The safety profile of dronedarone 400 mg BID is derived from analysis of the 3282 patients in the 5 AF/AFL studies who were treated with dronedarone 400 mg BID and the 2875 who received placebo. The mean duration of exposure across the 5 studies in the dronedarone 400 mg BID group was 13.5 months, representing total exposure of 3684 patient-years. In the ATHENA study, the maximum follow-up was 30 months.
Discontinuation due to adverse reactions occurred in 11.8% of patients in the dronedarone 400 mg BID group and 7.7% in the placebo-treated group. The most common adverse events causing discontinuation of therapy with dronedarone 400 mg BID were gastrointestinal disorders (3.2% of patients versus 1.8% in the placebo group).

[2] = system: patients with atrial fibrillation (AF) or atrial flutter (AFL) or a history of AF or AFL; assay: Clinical efficacy in patients with AF or AFL: cardiovascular hospitalization; settings: 400 mg twice daily (BID)
Text: as §1

CCCCc1oc2ccc(NS(C)(=O)=O)cc2c1C(=O)c1ccc(OCCCN(CCCC)CCCC)cc1 [dronedarone, 2-n-butyl-3-[4-(3-di-n-butylaminopropoxy)benzoyl]-5-methylsulfonamido-benzofuran] was tested, and the Increase in mortality [1] was “greater than two-fold increase in mortality”, the “Most frequent investigation abnormalities” value (patients with AF/AFL; dronedarone 400 mg BID) was “QT prolongation and increase in serum creatinine” and the “Discontinuation due to adverse reactions” value (patients with AF/AFL; dronedarone 400 mg BID group, 5 AF/AFL studies, placebo 7.7%) was 11.8 % of patients. For the same compound, the “Most frequent clinical adverse reactions” value (patients with AF/AFL; dronedarone 400 mg BID, 5 studies) was “diarrhea, nausea and vomiting, fatigue, asthenia, bradycardia, and rashes”, the “Gastrointestinal disorders causing discontinuation of therapy (most common adverse events causing discontinuation)” value (patients with AF/AFL; dronedarone 400 mg BID, placebo 1.8%) was 3.2 % of patients and the “Effect of intrinsic factors (race, gender, age) on incidence of any treatment-emergent adverse events” value (patients with AF/AFL; subgroup assessment) was “did not suggest any excess of adverse events in a particular subgroup”. For the same compound, the “Change in serum creatinine” value (patients with AF/AFL; within a week, does not reflect a change in underlying renal function) was “small change in serum creatinine” and the “Reduction of the risk of cardiovascular hospitalization” value [2] was “effective for reduction of the risk of cardiovascular hospitalization”.
